Test results from US20240238288A1, “ALDOSE REDUCTASE INHIBITORS FOR TREATING SORBITOL DEHYDROGENASE DEFICIENCY” (APPLIED THERAPEUTICS, INC., priority 2020, published 2024).

System: fibroblasts from patients with SDH deficiency (biallelic c.757delG)
Experiment: Sorbitol levels in human fibroblasts from patients with sorbitol dehydrogenase deficiency treated with aldose reductase inhibitors
Assay type: cell-based
Details: for reduction of sorbitol levels in comparison to vehicle control: 72 hours, SDH-deficient patient fibroblasts, sorbitol by UPLC-MS/MS normalized to protein; for sorbitol levels in SORD fibroblasts (FIG. 1 legend): FIG. 1 histogram, SORD patient fibroblasts
Method: Fibroblasts were obtained from skin biopsy of normal human volunteers or patients with confirmed sorbitol dehydrogenase deficiency (biallelic c.757delG). Fibroblasts were cultured in triplicate in Dulbecco's modified Eagle's medium (ThermoFisher) supplemented with 10% fetal bovine serum, penicillin and streptomycin (Gibco). Cells were grown in 5% CO2 at 37° C. in a humidified incubator. Asynchronous cell cultures were grown to approximately 80% confluency, and then treated with vehicle, Compound A (100 uM) or Compound B (10 uM) for 72 hours. Th media containing vehicle, Compound A or Compound B, was changed every 24 hours.
Sorbitol and protein were determinated from lysates of human fibroblasts. For protein measurements, fibroblasts were collected and lysed in RIPA buffer (ThermoFisher) containing protease inhibitors (Roche) and sonicated for 5 minutes using a Bioruptor sonication device (Diagenode). Protein quantification was conducted using a Coomassie assay. For sorbitol determination, a UPLC-tandem mass spectrometry (MS/MS) (Waters Acquity UPLC & TQD mass spectrometer) was used, fibroblasts were collected and lysed in RIPA buffer (ThermoFisher) and sonicated for 5 minutes using a Bioruptor sonication device (Diagenode). Cell lysates were centrifuged 13,000 g for 10 minutes at 4° C., and the supernatants were collected for protein quantification and sorbitol measurement. For Sorbitol measurements, the lysate underwent protein precipitation with acetonitrile (1:5), tenfold dilution with acetonitrile/water (50:50) and cleanup on Oasis HLB cartridges (10 mg/ml), before injection (3 ul) into the UPLC system. The UPLC conditions were as follows: column: BHE amid 1.7 um (2.1×100 mm) at 88° C.; eluent A: acetonitrile 90%/water 5%/isopropanol 5%; eluent B: acetonitrile 80%/water 20%; gradient elution, 0 minutes 100% A to 3.6 minutes 100% B; flow rate of 0.45 ml/minute. The retention time of sorbitol was 2.7 minutes. The linearity of the method was assessed between 0.25 and 50 mgl^−1. The MS/MS conditions were as follows: interface, electrospray interface in negative ion mode; multiple reaction monitory acquisition, m z 180.0-88.9 (CV 24, CE 15). The detection limit (signal-to-noise ration=3) was 0.03 mgl^−1. Sorbitol levels were normalized to protein concentration.

Row | SMILES | reduction of sorbitol levels in comparison to vehicle control (10 uM) [%] | sorbitol levels in SORD fibroblasts (FIG. 1 legend) | reduction of sorbitol levels in comparison to vehicle control (100 uM) [%]
1 | O=C(O)Cc1nn(Cc2nc3cc(C(F)(F)F)ccc3s2)c(=O)c2cscc12 [Compound B] | 75 | reduces sorbitol levels | –
2 | O=C(O)Cc1nn(Cc2nc3cc(C(F)(F)F)ccc3s2)c(=O)c2nccnc12 [Compound A] | – | reduces sorbitol levels | 78
